From US11123337B2, “4-methylsulfonyl-substituted piperidine urea compounds” (MYOKARDIA, INC., priority 2015, dated 2021)

Biological target: bovine cardiac myosin (Bos taurus, UniProt Q9BE39)
Assay: Myosin activation assay (PK/LDH-coupled ATPase, bovine cardiac myofibrils)
Format: biochemical
Conditions: AC20 = concentration at which total response is increased by twenty percent
Procedure, shortened: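 Values are the concentrations raising the ATPase rate by 20% or 50% over DMSO, from 10-point dose responses fitted with four parameters. Rate is NADH loss at 340 nm via PK/LDH coupling, read 15 min at room temperature, in pH 6.8 PIPES with 50 μM ATP. Bovine cardiac myofibrils were held at pCa ~6 or pCa 10.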

Chain of bovine cardiac myosin (Q9BE39 whole entry): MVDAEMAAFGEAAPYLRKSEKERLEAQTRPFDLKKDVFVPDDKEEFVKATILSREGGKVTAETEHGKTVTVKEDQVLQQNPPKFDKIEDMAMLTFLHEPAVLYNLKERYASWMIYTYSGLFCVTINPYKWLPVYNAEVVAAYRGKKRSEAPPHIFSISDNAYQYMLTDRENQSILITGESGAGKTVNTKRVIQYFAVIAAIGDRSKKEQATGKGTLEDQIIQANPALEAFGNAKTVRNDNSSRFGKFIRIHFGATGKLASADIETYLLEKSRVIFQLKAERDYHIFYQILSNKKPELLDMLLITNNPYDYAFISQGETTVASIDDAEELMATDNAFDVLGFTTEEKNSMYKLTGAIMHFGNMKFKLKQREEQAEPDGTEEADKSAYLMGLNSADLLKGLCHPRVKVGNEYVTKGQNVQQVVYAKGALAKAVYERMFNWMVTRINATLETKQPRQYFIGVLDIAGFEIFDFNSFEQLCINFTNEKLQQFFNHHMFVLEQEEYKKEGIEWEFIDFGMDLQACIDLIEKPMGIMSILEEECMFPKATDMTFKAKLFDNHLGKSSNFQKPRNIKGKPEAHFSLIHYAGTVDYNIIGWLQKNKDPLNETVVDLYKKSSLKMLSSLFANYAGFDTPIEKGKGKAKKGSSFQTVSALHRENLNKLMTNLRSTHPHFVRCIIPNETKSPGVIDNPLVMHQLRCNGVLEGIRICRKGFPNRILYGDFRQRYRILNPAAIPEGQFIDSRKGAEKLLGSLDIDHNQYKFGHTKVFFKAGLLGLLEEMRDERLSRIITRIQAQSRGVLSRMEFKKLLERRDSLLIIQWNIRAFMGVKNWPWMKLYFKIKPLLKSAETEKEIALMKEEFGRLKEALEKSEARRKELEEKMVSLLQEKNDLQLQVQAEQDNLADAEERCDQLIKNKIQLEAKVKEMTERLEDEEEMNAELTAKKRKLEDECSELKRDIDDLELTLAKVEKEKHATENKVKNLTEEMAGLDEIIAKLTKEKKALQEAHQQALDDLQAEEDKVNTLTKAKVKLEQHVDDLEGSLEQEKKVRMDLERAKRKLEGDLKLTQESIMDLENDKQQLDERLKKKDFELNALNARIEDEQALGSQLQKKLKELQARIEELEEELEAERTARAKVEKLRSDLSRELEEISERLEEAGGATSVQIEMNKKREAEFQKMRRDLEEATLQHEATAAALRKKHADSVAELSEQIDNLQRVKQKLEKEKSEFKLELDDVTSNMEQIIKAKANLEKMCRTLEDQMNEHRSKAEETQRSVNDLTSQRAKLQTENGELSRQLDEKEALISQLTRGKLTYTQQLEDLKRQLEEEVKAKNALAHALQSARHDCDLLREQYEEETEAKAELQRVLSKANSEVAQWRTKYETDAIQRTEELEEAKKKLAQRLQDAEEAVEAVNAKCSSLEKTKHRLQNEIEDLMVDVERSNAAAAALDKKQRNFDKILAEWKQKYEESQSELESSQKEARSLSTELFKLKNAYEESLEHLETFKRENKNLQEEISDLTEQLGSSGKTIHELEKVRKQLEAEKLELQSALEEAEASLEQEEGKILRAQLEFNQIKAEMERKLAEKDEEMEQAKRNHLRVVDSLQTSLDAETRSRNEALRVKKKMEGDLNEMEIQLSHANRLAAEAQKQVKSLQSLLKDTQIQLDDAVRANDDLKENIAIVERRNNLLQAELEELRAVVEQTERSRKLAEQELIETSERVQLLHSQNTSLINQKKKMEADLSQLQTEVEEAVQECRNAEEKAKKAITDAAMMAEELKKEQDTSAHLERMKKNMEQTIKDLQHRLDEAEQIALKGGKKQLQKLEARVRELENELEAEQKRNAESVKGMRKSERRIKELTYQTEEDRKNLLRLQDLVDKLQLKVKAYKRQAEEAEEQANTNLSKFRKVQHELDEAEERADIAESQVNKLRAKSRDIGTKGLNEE
Chain of bovine cardiac myosin (P85100 whole entry partner): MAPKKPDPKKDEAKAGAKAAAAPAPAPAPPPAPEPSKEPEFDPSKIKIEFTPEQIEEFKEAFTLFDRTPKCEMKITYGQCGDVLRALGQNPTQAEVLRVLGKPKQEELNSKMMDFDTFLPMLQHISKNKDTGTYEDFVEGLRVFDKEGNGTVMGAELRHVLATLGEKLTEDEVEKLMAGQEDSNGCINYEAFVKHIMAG
Chain of bovine cardiac myosin (Q3SZE5 whole entry partner): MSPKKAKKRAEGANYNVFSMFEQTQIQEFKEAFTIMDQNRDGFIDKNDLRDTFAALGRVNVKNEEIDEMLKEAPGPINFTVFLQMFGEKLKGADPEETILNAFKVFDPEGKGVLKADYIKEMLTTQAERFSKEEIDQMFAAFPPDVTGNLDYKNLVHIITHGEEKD

SMILES	Myosin Activation (AC20)
Cn1nc(Cl)cc1S(=O)(=O)C(C)(C)C1CCN(C(=O)Nc2ccnc(F)c2)CC1 [Compound 115, 4-(2-((3-chloro-1-methyl-1H-pyrazol-5-yl)sulfonyl)propan-2-yl)-N-(2-fluoropyridin-4-yl)piperidine-1-carboxamide]	++ (++ represents myosin activation value AC20 from 2 μM-5 μM)
Cn1cc(S(=O)(=O)C(C)(C)C2CCN(C(=O)Nc3ccc(F)nc3)CC2)c(C(F)F)n1 [Compound 117, 4-(2-((3-(difluoromethyl)-1-methyl-1H-pyrazol-4-yl)sulfonyl)propan-2-yl)-N-(6-fluoropyridin-3-yl)piperidine-1-carboxamide]	++ (++ represents myosin activation value AC20 from 2 μM-5 μM)
Cn1cc(S(=O)(=O)C(C)(C)C2CCN(C(=O)Nc3cccnc3)CC2)c(C(F)F)n1 [Compound 118, 4-(2-((3-(difluoromethyl)-1-methyl-1H-pyrazol-4-yl)sulfonyl)propan-2-yl)-N-(pyridin-3-yl)piperidine-1-carboxamide]	+++ (+++ represents myosin activation value AC20 < 2 μM)
CC(C)(C1CCN(C(=O)Nc2cncc(F)c2)CC1)S(=O)(=O)c1cccc(F)c1 [Compound 119, 4-(2-((3-fluorophenyl)sulfonyl)propan-2-yl)-N-(5-fluoropyridin-3-yl)piperidine-1-carboxamide]	++ (++ represents myosin activation value AC20 from 2 μM-5 μM)
Cn1cc(S(=O)(=O)C(C)(C)C2CCN(C(=O)Nc3ccnnc3)CC2)c(C(F)(F)F)n1 [Compound 120, 4-(2-((1-methyl-3-(trifluoromethyl)-1H-pyrazol-4-yl)sulfonyl)propan-2-yl)-N-(pyridazin-4-yl)piperidine-1-carboxamide]	++ (++ represents myosin activation value AC20 from 2 μM-5 μM)
Cc1ccc(NC(=O)N2CCC(C(C)(C)S(=O)(=O)c3cccc(F)c3)CC2)nn1 [Compound 121, 4-(2-((3-fluorophenyl)sulfonyl)propan-2-yl)-N-(6-methylpyridazin-3-yl)piperidine-1-carboxamide]	+ (+ represents myosin activation value AC20 > 5 μM)
Cn1nc(C(F)F)cc1S(=O)(=O)C(C)(C)C1CCN(C(=O)Nc2ccnnc2)CC1 [Compound 122, 4-(2-((3-(difluoromethyl)-1-methyl-1H-pyrazol-5-yl)sulfonyl)propan-2-yl)-N-(pyridazin-4-yl)piperidine-1-carboxamide]	+++ (+++ represents myosin activation value AC20 < 2 μM)
Cn1nc(C(F)(F)F)cc1S(=O)(=O)C(C)(C)C1CCN(C(=O)Nc2ccc(F)nc2)CC1 [Compound 123, N-(6-fluoropyridin-3-yl)-4-(2-((1-methyl-3-(trifluoromethyl)-1H-pyrazol-5-yl)sulfonyl)propan-2-yl)piperidine-1-carboxamide]	++ (++ represents myosin activation value AC20 from 2 μM-5 μM)
Cn1nccc1S(=O)(=O)C(C)(C)C1CCN(C(=O)Nc2ccc(F)nc2)CC1 [Compound 124, N-(6-fluoropyridin-3-yl)-4-(2-((1-methyl-1H-pyrazol-5-yl)sulfonyl)propan-2-yl)piperidine-1-carboxamide]	+ (+ represents myosin activation value AC20 > 5 μM)
Cc1cnc(NC(=O)N2CCC(C(C)(C)S(=O)(=O)c3cccc(F)c3)CC2)cn1 [Compound 125, 4-(2-((3-fluorophenyl)sulfonyl)propan-2-yl)-N-(5-methylpyrazin-2-yl)piperidine-1-carboxamide]	+ (+ represents myosin activation value AC20 > 5 μM)
Cn1nc(C(F)(F)F)cc1S(=O)(=O)C(C)(C)C1CCN(C(=O)Nc2ccon2)CC1 [Compound 126, N-(isoxazol-3-yl)-4-(2-((1-methyl-3-(trifluoromethyl)-1H-pyrazol-5-yl)sulfonyl)propan-2-yl)piperidine-1-carboxamide]	++ (++ represents myosin activation value AC20 from 2 μM-5 μM)
